According to ChEMBL document CHEMBL1148776, “Structure-based optimization of protein tyrosine phosphatase 1B inhibitors: from the active site to the second phosphotyrosine binding site” (J Med Chem, 2007):

How the values were obtained:
[1] = target: T1, Receptor-type tyrosine-protein phosphatase C (Homo sapiens, UniProt P08575); assay: Inhibition of human recombinant CD45
T1 sequence (P08575 whole entry): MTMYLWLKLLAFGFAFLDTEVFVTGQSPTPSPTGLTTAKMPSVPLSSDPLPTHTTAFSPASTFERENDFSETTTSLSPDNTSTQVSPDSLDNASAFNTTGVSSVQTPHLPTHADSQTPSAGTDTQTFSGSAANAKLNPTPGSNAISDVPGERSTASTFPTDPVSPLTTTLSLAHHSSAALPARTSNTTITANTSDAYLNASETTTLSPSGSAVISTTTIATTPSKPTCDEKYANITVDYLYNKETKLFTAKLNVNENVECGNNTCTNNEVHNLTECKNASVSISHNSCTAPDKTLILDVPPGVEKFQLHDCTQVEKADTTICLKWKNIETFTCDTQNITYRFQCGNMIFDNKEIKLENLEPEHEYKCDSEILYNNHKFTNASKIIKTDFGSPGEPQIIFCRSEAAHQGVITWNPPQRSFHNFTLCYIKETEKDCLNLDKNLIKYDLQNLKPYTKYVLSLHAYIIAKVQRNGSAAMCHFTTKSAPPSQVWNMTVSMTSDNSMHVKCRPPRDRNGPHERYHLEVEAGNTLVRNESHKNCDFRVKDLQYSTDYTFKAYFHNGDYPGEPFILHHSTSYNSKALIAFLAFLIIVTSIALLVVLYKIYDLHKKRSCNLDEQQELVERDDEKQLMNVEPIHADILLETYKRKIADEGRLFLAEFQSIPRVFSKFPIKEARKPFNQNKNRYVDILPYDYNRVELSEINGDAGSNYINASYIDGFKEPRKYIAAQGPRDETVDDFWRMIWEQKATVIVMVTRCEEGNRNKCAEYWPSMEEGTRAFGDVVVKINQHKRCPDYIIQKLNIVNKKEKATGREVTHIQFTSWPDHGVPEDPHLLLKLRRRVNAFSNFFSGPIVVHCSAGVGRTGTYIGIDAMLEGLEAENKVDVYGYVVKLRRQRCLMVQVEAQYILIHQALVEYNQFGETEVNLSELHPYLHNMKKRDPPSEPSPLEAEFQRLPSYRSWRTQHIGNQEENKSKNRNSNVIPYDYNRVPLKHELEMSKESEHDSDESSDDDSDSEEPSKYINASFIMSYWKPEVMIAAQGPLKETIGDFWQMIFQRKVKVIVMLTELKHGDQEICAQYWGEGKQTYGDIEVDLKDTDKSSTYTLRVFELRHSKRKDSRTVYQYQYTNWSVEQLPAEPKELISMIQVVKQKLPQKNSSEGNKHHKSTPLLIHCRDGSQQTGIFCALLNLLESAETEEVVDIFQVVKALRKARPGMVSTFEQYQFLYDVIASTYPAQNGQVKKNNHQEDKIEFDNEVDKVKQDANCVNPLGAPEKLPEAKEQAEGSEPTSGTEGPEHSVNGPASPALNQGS

[2] = target: Receptor-type tyrosine-protein phosphatase F (Homo sapiens, UniProt P10586); assay: Inhibition of human recombinant LAR
[3] = target: T2, Tyrosine-protein phosphatase non-receptor type 1 (Homo sapiens, UniProt P18031); assay: Inhibition of human recombinant PTP1B
T2 sequence (P18031 whole entry): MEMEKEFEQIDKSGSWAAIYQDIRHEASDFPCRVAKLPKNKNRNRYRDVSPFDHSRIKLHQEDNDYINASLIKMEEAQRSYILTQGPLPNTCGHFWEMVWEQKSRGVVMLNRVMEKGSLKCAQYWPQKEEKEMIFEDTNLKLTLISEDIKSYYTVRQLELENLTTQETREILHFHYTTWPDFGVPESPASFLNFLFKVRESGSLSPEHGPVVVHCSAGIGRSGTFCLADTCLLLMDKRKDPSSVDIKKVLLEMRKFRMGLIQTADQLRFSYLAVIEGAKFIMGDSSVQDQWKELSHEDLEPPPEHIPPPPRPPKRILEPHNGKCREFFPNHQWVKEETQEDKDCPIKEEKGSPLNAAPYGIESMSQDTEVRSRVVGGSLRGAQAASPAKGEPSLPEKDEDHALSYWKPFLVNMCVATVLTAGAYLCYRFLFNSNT

Receptor-type tyrosine-protein phosphatase F, sequence (P10586 whole entry): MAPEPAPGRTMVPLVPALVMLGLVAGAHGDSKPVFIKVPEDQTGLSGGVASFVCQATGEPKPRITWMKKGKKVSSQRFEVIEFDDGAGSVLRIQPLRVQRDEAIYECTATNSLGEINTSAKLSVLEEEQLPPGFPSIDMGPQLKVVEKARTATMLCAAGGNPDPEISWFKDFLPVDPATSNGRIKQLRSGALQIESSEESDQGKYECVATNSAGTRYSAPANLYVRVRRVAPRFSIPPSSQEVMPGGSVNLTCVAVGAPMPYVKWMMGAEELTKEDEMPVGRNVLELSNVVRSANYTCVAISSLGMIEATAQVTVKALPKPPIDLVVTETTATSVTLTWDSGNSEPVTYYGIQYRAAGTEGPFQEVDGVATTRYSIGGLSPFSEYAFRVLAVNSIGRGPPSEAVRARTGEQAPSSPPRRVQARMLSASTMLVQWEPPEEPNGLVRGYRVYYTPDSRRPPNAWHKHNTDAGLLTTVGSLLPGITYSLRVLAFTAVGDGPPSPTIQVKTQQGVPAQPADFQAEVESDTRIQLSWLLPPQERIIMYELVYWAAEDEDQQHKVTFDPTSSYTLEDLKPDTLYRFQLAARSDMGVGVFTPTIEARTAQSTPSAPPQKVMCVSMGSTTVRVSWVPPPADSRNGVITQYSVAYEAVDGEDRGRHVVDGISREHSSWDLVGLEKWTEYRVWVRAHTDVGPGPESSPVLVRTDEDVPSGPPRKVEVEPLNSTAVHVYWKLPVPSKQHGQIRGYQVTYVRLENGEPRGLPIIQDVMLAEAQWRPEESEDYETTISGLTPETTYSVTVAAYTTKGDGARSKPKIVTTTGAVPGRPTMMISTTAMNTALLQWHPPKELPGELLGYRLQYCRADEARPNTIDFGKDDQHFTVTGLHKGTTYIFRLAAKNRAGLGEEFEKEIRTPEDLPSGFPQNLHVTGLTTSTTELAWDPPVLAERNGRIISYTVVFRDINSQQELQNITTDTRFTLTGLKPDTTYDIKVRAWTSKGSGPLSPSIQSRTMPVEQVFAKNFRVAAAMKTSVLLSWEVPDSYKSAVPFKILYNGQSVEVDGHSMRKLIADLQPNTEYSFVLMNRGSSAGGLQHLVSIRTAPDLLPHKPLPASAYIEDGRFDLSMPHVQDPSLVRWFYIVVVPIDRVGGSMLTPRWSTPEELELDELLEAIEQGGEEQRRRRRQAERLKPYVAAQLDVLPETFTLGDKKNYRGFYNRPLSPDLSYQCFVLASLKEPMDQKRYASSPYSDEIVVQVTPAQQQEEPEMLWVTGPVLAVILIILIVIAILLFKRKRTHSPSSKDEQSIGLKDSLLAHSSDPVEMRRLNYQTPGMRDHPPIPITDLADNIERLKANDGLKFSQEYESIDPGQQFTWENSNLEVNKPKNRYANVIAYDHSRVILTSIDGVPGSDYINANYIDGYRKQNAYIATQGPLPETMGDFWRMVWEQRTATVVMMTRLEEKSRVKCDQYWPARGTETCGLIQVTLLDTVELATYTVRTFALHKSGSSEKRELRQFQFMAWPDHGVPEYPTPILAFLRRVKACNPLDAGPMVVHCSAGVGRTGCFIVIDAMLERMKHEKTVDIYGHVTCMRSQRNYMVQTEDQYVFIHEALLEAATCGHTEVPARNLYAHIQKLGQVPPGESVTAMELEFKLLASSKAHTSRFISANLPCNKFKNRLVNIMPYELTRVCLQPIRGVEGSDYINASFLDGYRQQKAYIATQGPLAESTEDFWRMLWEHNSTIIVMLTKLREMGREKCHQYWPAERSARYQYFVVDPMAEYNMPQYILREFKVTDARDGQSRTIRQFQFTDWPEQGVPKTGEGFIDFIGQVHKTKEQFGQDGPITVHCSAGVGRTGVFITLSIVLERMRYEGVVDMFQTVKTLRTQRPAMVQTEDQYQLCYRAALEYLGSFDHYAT

| Compound | Ki [1] [µM] | Ki [2] [µM] | Ki [3] [µM] |
| --- | --- | --- | --- |
| O=C(O)COc1c(C(=O)O)sc(-c2ccccc2)c1Br | 280 | > 500 | – |
| O=C(O)COc1c(C(=O)O)sc(-c2cccc(NCC3CCN(C(=O)Nc4ccccc4)CC3)c2)c1Br | – | – | 0.007 |
| O=C(O)COc1c(C(=O)O)sc(-c2cccc(OCC3CCN(C(=O)Nc4ccccc4)CC3)c2)c1Br | – | – | 0.013 |
| O=C(O)COc1c(C(=O)O)sc(-c2cccc(NC3CCN(S(=O)(=O)Cc4ccc(Cl)cc4)CC3)c2)c1Br | – | – | 0.038 |
| O=C(O)COc1c(C(=O)O)sc(-c2cccc(NC3CCN(S(=O)(=O)Cc4ccccc4Cl)CC3)c2)c1Br | – | – | 0.005 |
| O=C(O)COc1c(C(=O)O)sc(-c2cccc(NC3CCN(S(=O)(=O)Cc4ccccc4C(F)(F)F)CC3)c2)c1Br | – | – | 0.006 |
| Cc1cccc(C)c1CS(=O)(=O)N1CCC(Nc2cccc(-c3sc(C(=O)O)c(OCC(=O)O)c3Br)c2)CC1 | – | – | 0.006 |
| COc1ccccc1NC(=O)N1CCC(CNc2cccc(-c3sc(C(=O)O)c(OCC(=O)O)c3Br)c2)CC1 | – | – | 0.003 |
| Cc1cccc(C)c1NC(=O)N1CCC(CNc2cccc(-c3sc(C(=O)O)c(OCC(=O)O)c3Br)c2)CC1 | – | – | 0.003 |
| Nc1cccc(-c2sc(C(=O)O)c(OCC(=O)O)c2Br)c1 | – | – | 1.7 |
| CCC(=O)Nc1cccc(-c2sc(C(=O)O)c(OCC(=O)O)c2Br)c1 | – | – | 2 |
| CC(C)NC(=O)Nc1cccc(-c2sc(C(=O)O)c(OCC(=O)O)c2Br)c1 | – | – | 2.1 |
| COC(=O)Nc1cccc(-c2sc(C(=O)O)c(OCC(=O)O)c2Br)c1 | – | – | 2 |
| O=C(O)COc1c(C(=O)O)sc(-c2cccc(NCC3CCCCC3)c2)c1Br | – | – | 0.2 |
| O=C(O)COc1c(C(=O)O)sc(-c2cccc(NC3CCCCCC3)c2)c1Br | – | – | 0.12 |
| CC1(C)CC(Nc2cccc(-c3sc(C(=O)O)c(OCC(=O)O)c3Br)c2)CC(C)(C)C1 | 151 | > 1000 | – |
| O=C(O)COc1c(C(=O)O)sc(-c2cccc(NC3CCNCC3)c2)c1Br | – | – | 3.8 |
| COC(=O)N1CCC(Nc2cccc(-c3sc(C(=O)O)c(OCC(=O)O)c3Br)c2)CC1 | – | – | 0.39 |
| CS(=O)(=O)N1CCC(Nc2cccc(-c3sc(C(=O)O)c(OCC(=O)O)c3Br)c2)CC1 | – | – | 0.044 |
| O=C(O)COc1c(C(=O)O)sc(-c2cccc(NC3CCN(S(=O)(=O)c4ccccc4)CC3)c2)c1Br | – | – | 0.055 |

| Compound | Ki [1] [µM] | Ki [2] [µM] | Ki [3] [µM] |
| --- | --- | --- | --- |
| Cc1c(-c2cccc(NC3CCN(S(=O)(=O)Cc4ccccc4)CC3)c2)sc(C(=O)O)c1OCC(=O)O | – | – | 0.008 |
| O=C(O)COc1c(C(=O)O)sc(-c2cccc(NC3CCN(S(=O)(=O)Cc4ccccc4)CC3)c2)c1Cl | – | – | 0.00068 |
| O=C(O)COc1c(C(=O)O)sc(-c2cccc(OC3CCN(S(=O)(=O)Cc4ccccc4)CC3)c2)c1Br | – | – | 0.024 |
| O=C(O)COc1c(C(=O)O)sc(-c2cccc(NCC3CCN(C(=O)Nc4ccccc4Cl)CC3)c2)c1Br | – | – | 0.004 |
| O=C(O)COc1cc(-c2cccc(NC3CCN(S(=O)(=O)Cc4ccccc4)CC3)c2)sc1C(=O)O | – | – | 2 |
| O=C(O)COc1c(C(=O)O)sc(-c2cccc(NCC3CCN(S(=O)(=O)Cc4ccccc4)CC3)c2)c1Br | – | – | 0.074 |
| O=C(O)COc1c(C(=O)O)sc(-c2cccc(NC3CCN(S(=O)(=O)Cc4cccc(Cl)c4)CC3)c2)c1Br | – | – | 0.01 |
| Cc1ccccc1CS(=O)(=O)N1CCC(Nc2cccc(-c3sc(C(=O)O)c(OCC(=O)O)c3Br)c2)CC1 | – | – | 0.004 |
| O=C(O)COc1c(C(=O)O)sc(-c2cccc(OCc3ccccc3)c2)c1Br | – | – | 0.68 |
| O=C(O)COc1c(C(=O)O)sc(-c2cccc(NC3CCCC3)c2)c1Br | – | – | 0.39 |
| O=C(O)COc1c(C(=O)O)sc(-c2cccc(NC3CCOCC3)c2)c1Br | – | – | 0.31 |
| CS(=O)(=O)Nc1ccccc1CS(=O)(=O)N1CCC(Nc2cccc(-c3sc(C(=O)O)c(OCC(=O)O)c3Br)c2)CC1 | – | – | 0.001 |
| CC(=O)N1CCC(Nc2cccc(-c3sc(C(=O)O)c(OCC(=O)O)c3Br)c2)CC1 | – | – | 0.19 |
| O=C(O)COc1c(C(=O)O)sc(-c2cccc(NC3CCN(C(=O)NCc4ccccc4)CC3)c2)c1Br | – | – | 0.3 |
| COc1cccc(-c2sc(C(=O)O)c(OCC(=O)O)c2Br)c1 | – | – | 4 |
| O=C(O)COc1c(C(=O)O)sc(-c2cccc(NC(=O)c3ccccc3)c2)c1Br | – | – | 2.1 |
| O=C(O)COc1c(C(=O)O)sc(-c2cccc(NS(=O)(=O)c3ccc(F)cc3)c2)c1Br | – | – | 0.44 |
| Cc1ccccc1NC(=O)N1CCC(CNc2cccc(-c3sc(C(=O)O)c(OCC(=O)O)c3Br)c2)CC1 | – | – | 0.003 |
| CCNC(=O)Nc1ccccc1CS(=O)(=O)N1CCC(Nc2cccc(-c3sc(C(=O)O)c(OCC(=O)O)c3Br)c2)CC1 | – | – | 0.014 |
| O=C(O)COc1c(C(=O)O)sc(-c2cccc(NCC3CCN(S(=O)(=O)c4ccccc4)CC3)c2)c1Br | – | – | 0.31 |
